{"source": "paper PMC11684029", "about": "“Discovery of VU6024578/BI02982816: An mGlu1 Positive Allosteric Modulator with Efficacy in Preclinical Antipsychotic and Cognition Models” (Journal of Medicinal Chemistry, 2024)", "key": {"[1]": {"assay": "PK in parallel to rat locomotor battery", "format": "in vivo", "procedure": "In order to enable our target validation work, we first profiled PAM 19d in a rat locomotor battery to ensure that pharmacodynamic efficacy was not mistaken for gross effects on locomotion.[20] […] PK was performed in parallel to establish a PK/PD relationship.[24]\nFigure S2. 19d assessed in rat locomotor battery A: Exposure of 19d in the locomotor battery experiment. […]"}, "[2]": {"assay": "metabolite identification", "format": "in vitro ADME", "settings": "± NADPH; for metabolites of the furanyl ring: 60 min; for parent in 60 min samples: UV peak areas", "procedure": "Across species, 19d had acceptable fraction unbound in both plasma (fu (plasma): 0.03 (human), 0.041 (rat), 0.025 (cyno), 0.039 (dog) and 0.056 (mouse)) and brain (fu (brain): 0.034 (rat) and 0.081 (mouse)).\nFigure 5 Metabolite identification of VU6024578 (19d) in rat and human liver microsomes. […] Thus, we incubated 19d in rat and human liver microsomes (with and without NADPH) for 60 min and monitored by both extracted ion and UV detection for the production of metabolites and consumption of parent."}, "5-HT2B": {"target": "5-HT2B (Homo sapiens, UniProt P41595)", "sequence (P41595 whole entry)": "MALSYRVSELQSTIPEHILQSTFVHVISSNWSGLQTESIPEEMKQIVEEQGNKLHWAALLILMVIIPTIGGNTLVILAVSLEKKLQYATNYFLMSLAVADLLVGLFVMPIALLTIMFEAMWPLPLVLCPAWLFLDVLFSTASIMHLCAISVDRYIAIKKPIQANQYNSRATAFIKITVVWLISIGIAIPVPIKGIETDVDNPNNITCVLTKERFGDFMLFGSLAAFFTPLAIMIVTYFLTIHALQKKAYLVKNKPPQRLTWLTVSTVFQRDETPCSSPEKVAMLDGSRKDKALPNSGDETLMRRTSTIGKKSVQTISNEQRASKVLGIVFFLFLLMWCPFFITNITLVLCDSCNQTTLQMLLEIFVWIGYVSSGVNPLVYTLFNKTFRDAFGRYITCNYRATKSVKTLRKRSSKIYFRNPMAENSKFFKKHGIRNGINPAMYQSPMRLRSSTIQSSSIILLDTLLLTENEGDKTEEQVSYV", "assay": "Eurofins radioligand binding panel", "design": "Eurofins", "settings": "agonist radioligand", "excerpt": "Table S1. Eurofins Lead Profiling Screen Data\nThis is a radioligand binding panel of 80 targets including GPCRs, ion channels, transporters and nuclear hormones. Biochemical assay results are presented as the percent inhibition of specific […]\nResults showing an inhibition or stimulation higher than 50% are considered to represent significant effect and are highlighted"}, "[3]": {"assay": "solubility (kinetic, FaSSIF, FaSSGF)", "format": "physicochemical", "procedure": "(§1) Over the course of the mGlu1 PAM program, 19d became an assay standard and was assayed multiple times, affording refined potency values.[20]"}, "3A4": {"target": "3A4 (Homo sapiens, UniProt P08684)", "sequence (P08684 whole entry)": "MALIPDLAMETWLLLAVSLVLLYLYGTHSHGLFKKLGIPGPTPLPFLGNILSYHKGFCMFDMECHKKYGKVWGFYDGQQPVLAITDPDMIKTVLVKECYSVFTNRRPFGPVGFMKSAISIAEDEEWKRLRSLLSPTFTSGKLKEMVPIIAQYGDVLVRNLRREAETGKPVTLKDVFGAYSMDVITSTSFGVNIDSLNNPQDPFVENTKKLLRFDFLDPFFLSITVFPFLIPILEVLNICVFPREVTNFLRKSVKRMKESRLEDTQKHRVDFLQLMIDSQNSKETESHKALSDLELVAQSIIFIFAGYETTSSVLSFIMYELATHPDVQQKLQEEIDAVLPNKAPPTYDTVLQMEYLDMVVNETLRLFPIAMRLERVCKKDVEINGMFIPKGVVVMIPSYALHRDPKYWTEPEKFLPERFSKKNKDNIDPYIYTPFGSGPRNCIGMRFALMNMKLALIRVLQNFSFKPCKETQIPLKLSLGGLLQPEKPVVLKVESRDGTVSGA", "assay": "3A4 mechanism-based inhibition", "format": "in vitro ADME"}, "mGlu1": {"target": "mGlu1 (Mus musculus, UniProt P97772)", "sequence (P97772 21-1199)": "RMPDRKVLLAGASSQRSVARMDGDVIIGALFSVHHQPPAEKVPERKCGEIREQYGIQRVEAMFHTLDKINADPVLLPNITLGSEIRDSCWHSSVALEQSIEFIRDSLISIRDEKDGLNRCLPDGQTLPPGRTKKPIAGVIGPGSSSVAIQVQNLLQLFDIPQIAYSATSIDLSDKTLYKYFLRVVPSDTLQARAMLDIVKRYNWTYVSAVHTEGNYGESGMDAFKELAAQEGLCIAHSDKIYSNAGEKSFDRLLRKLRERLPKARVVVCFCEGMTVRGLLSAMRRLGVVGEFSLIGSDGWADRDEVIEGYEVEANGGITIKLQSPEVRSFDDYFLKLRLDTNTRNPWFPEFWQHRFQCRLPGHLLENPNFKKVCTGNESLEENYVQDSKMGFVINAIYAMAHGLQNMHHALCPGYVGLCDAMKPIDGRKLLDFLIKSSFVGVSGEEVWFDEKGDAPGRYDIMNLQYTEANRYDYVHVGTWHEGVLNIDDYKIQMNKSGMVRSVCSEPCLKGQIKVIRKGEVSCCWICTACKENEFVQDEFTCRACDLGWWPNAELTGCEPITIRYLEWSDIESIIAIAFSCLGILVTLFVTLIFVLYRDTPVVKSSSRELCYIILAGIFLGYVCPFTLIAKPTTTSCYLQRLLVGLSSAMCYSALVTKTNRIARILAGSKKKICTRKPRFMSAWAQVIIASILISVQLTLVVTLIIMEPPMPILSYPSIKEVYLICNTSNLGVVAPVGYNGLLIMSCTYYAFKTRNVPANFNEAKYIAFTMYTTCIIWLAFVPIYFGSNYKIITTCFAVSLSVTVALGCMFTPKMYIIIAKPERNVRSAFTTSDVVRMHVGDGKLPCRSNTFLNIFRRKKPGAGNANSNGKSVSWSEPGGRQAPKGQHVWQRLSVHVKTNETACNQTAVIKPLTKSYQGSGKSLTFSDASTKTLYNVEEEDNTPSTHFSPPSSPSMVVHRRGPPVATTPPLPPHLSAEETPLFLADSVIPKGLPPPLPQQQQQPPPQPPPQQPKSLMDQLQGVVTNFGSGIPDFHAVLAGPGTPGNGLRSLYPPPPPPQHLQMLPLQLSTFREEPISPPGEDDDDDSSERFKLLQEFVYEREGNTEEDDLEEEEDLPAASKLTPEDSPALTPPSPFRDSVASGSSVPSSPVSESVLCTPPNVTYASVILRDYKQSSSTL", "assay": "mGlu1 PAM assay, mouse receptor", "format": "cell-based", "settings": "n = 5", "procedure": "as §1"}, "dog mGlu1": {"target": "dog mGlu1 (Canis lupus familiaris, UniProt A0A8I3NTE8)", "sequence (A0A8I3NTE8 30-1195)": "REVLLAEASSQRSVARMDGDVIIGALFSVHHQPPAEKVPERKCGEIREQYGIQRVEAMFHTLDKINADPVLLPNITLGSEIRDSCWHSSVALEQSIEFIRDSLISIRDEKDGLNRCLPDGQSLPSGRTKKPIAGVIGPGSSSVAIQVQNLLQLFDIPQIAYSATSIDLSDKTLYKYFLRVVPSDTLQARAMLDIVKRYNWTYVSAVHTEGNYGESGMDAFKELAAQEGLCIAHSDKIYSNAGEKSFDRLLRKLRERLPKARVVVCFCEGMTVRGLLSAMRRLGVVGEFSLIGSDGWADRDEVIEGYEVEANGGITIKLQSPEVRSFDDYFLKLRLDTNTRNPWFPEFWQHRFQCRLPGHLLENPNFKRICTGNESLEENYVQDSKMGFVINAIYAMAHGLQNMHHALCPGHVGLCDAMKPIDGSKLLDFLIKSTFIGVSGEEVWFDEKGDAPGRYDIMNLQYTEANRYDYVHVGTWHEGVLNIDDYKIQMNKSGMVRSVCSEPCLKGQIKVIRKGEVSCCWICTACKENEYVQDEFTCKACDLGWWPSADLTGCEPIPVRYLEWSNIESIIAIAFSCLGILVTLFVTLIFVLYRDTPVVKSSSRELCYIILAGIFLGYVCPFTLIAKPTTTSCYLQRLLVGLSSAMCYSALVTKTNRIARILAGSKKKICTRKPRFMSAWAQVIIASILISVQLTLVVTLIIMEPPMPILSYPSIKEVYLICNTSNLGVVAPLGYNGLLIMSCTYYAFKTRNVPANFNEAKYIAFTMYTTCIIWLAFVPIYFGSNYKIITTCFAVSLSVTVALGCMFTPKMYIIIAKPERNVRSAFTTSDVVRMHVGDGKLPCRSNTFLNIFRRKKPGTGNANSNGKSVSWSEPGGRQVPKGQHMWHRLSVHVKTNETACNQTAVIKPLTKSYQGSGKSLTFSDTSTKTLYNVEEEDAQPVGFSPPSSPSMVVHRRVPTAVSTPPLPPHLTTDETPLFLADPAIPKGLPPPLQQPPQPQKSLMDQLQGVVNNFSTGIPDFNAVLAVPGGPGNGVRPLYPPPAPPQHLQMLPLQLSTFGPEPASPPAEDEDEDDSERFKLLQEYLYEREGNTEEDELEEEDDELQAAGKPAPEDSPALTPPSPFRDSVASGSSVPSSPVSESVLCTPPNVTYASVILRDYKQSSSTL", "assay": "mGlu1 PAM assay, dog receptor", "format": "cell-based", "settings": "read-out: dog mGlu1 Glumax"}, "[4]": {"assay": "intrinsic clearance, predicted hepatic clearance", "format": "in vitro ADME, human", "settings": "in vitro predicted hepatic clearance", "procedure": "Human or rat hepatic microsomes (0.5 mg/mL) and 1 μM test compound were incubated in 100 mM potassium phosphate pH 7.4 buffer with 3 mM MgCl2 at 37 °C with constant shaking. After a 5 min preincubation, the reaction was initiated by addition of NADPH (1 mM). At selected time intervals (0, 3, 7, 15, 25, and 45 min), aliquots were taken and subsequently placed into a 96-well plate containing cold acetonitrile with internal standard (50 ng/mL carbamazepine). Plates were then centrifuged at 3000 rcf (4 °C) for 10 min, and the supernatant was transferred to a separate 96-well plate and diluted 1:1 with water for LC/MS/MS analysis. The in vitro half-life (T1/2, min, eq 1), intrinsic clearance (CLint, mL/min/kg, eq 2) and subsequent predicted hepatic clearance (CLhep, mL/min/kg, eq 3) was determined employing the following equations: [drawing 2] 1 where k represents the slope from linear regression analysis of the natural log percent remaining of test compound as a function of incubation time [drawing 3] 2\n^ascale-up factors: of 20 (human) or 45 (rat) [drawing 4] 3 where Qh (hepatic blood flow, mL/min/kg) is 21 (human) or 70 (rat)."}, "P-gp (MDR1)": {"target": "T1, P-gp (MDR1) (Homo sapiens, UniProt P08183)", "T1 construct": "expressed in transfected cells; host or cells: MDCK-MDR1", "T1 sequence (P08183 whole entry)": "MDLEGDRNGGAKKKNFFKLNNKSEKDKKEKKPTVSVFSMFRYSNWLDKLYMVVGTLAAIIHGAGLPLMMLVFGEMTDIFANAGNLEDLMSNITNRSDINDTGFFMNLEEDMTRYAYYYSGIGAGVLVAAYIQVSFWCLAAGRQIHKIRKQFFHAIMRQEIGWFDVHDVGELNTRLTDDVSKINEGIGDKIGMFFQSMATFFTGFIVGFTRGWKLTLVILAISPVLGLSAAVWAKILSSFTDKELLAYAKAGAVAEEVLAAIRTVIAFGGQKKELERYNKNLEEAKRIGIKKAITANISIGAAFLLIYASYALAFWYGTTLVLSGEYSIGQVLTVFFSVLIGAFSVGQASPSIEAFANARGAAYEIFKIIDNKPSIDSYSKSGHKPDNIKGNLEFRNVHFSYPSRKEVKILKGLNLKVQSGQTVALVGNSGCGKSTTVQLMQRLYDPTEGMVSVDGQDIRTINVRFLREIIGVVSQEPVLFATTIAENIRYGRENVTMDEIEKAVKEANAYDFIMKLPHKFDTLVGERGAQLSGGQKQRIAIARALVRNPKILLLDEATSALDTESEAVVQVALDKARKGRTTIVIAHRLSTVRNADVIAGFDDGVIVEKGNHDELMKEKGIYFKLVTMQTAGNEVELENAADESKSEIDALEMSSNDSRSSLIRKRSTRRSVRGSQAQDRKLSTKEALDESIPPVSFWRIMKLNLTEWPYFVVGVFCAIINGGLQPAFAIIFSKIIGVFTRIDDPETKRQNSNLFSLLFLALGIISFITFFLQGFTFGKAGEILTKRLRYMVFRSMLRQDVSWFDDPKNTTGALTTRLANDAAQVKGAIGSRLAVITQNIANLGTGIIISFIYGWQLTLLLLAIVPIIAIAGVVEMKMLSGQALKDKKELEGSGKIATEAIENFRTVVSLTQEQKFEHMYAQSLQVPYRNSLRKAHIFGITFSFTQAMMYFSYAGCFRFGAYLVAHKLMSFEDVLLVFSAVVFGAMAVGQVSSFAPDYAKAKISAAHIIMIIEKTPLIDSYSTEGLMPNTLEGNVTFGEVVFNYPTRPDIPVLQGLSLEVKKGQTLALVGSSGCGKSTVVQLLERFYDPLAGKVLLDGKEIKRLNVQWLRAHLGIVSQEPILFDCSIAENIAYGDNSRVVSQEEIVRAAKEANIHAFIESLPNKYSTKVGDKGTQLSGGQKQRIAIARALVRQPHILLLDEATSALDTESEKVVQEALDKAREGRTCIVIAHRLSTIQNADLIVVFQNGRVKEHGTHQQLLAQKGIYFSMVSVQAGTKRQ", "assay": "MDCK-MDR1 permeability/efflux", "format": "in vitro ADME", "settings": "human"}, "human P-gp": {"target": "T2, human P-gp (Homo sapiens, UniProt P08183)", "T2 construct": "expressed in transfected cells; host or cells: MDCK-MDR1", "assay": "MDCK-MDR1 permeability/efflux", "format": "in vitro ADME"}, "Sprague–Dawley rats": {"test_system": "Sprague–Dawley rats", "assay": "amphetamine-induced hyperlocomotion (rat)", "format": "in vivo", "procedure": "Here, administration of 0.75 mg/kg IP of amphetamine induced a robust hyperlocomotive state in rats (>1200 beam breaks), which was dose-dependently reversed by oral administration of 19d. […] Considering the longer time point for exposure and the results, mGlu1 has sufficient target coverage and PK/PD is established for this paradigm.[24]\nFigure 7 Rat amphetamine-induced hyperlocomotion and reversal by VU6024578 (19d). Amphetamine (0.75 mg/kg IP) induced robust hyperlocomotion, which was dose-dependently reversed by oral administration (10% tween 80) of 19d. TEXT PRINTED IN THE PICTURE: VU6024578: Mean % reversal: -0.2 ± 13.0 (1 mg/kg p.o. + Amphetamine 0.75 mg/kg s.c.); Mean % reversal: 31.6 ± 10.2 (3 mg/kg p.o. + Amphetamine 0.75 mg/kg s.c.); Mean % reversal: 31.4 ± 4.3 (5.6 mg/kg p.o. + Amphetamine 0.75 mg/kg s.c.); Mean % reversal: 41.8 ± 7.1 (10 mg/kg p.o. + Amphetamine 0.75 mg/kg s.c.)\nAdult male Sprague–Dawley rats placed into the activity chambers (Med Associates). Thirty minutes after placement in the chambers, the rats were administered VU6024578 (1–10 mg/kg p.o.) or vehicle. Sixty minutes later the rats were injected with amphetamine (0.75 mg/kg s.c. One ml/kg) or vehicle (saline) and placed back in the activity chambers for 90 min. The data for the studies were analyzed by a between-group 2 way analysis of variance for compound dose and time. Each dose group was compared with the vehicle control group. The calculations were performed and graphed using GraphPad Prism (version 4.03, GraphPad, La Jolla, CA). The AUC was analyzed by a 1-way ANOVA with a Dunnett’s post hoc test."}}, "note": "Where “and” joins values, the source holds several entries; their conditions need not be identical. Identical values can stand only once. Like-named read-outs stand apart in the source and are kept apart here.", "data": [{"smiles": "Cn1nc(-c2ccnn2C)cc1CNC(=O)c1cc(-c2ccco2)ccc1Cl", "note": "[Compound 19d, 2-Chloro-N-((1,2′-dimethyl-1H,2’H-[3,3′-bipyrazol]-5-yl)methyl)-5-(furan-2-yl)benzamide]", "values": [{"measurement": "Kp", "setting": "[1]; brain, rat locomotor battery PK", "result": "~0.75"}, {"measurement": "free brain concentration", "setting": "[1]; rat, 10 mg/kg", "result": 134, "unit": "nM"}, {"measurement": "free brain concentration over in vitro EC50", "setting": "[1]; rat, 10 mg/kg", "result": "~2.9", "unit": "fold"}, {"measurement": "metabolites of the furanyl ring", "setting": "[2]; human liver microsomes", "result": "no metabolites corresponding to oxidation or opening of the furanyl ring were detected"}, {"measurement": "parent in 60 min samples", "setting": "[2]; human liver microsomes", "result": "major component observed"}, {"measurement": "metabolites of the furanyl ring", "setting": "[2]; rat liver microsomes", "result": "no metabolites corresponding to oxidation or opening of the furanyl ring were detected"}, {"measurement": "parent in 60 min samples", "setting": "[2]; rat liver microsomes", "result": "major component observed"}, {"measurement": "inhibition at 10 µM", "setting": "5-HT2B", "result": 67, "unit": "%"}, {"measurement": "solubility", "setting": "[3]; FaSSGF, fassgf or other biorelevant, read-out: FaSSGF solubility", "result": 2.5, "unit": "µM"}, {"measurement": "solubility", "setting": "[3]; FaSSIF, read-out: FaSSIF solubility", "result": 2.5, "unit": "µM"}, {"measurement": "solubility kinetic", "setting": "[3]; pH 7.4, aqueous buffer, kinetic from dmso stock", "result": 4.1, "unit": "µM"}, {"measurement": "3A4 mechanism-based inhibition", "setting": "3A4", "result": "no 3A4 mechanism-based inhibition"}, {"measurement": "EC50", "setting": "mGlu1", "result": 0.027, "unit": "µM"}, {"measurement": "mouse mGlu1 Glumax", "setting": "mGlu1", "result": 89, "unit": "%"}, {"measurement": "mouse mGlu1 pEC50", "setting": "mGlu1", "result": "7.59 ± 0.07"}, {"measurement": "Emax", "setting": "dog mGlu1", "result": 129, "unit": "%"}, {"measurement": "CLhep, human", "setting": "[4]", "result": "16 mL/min/kg and 15.8 mL/min/kg"}, {"measurement": "Papp", "setting": "P-gp (MDR1)", "result": 73, "unit": "×10⁻⁶ cm/s"}, {"measurement": "human P-gp substrate, in words", "setting": "human P-gp", "result": "not a human P-gp substrate"}, {"measurement": "Mean % reversal of AHL", "setting": "Sprague–Dawley rats; 1 mg/kg p.o.", "result": "-0.2 ± 13.0", "unit": "%"}, {"measurement": "Mean % reversal of AHL", "setting": "Sprague–Dawley rats; 3 mg/kg p.o.", "result": "31.6 ± 10.2", "unit": "%"}, {"measurement": "Mean % reversal of AHL", "setting": "Sprague–Dawley rats; 5.6 mg/kg p.o.", "result": "31.4 ± 4.3", "unit": "%"}, {"measurement": "Mean % reversal of AHL", "setting": "Sprague–Dawley rats; 10 mg/kg p.o.", "result": "41.8 ± 7.1", "unit": "%"}, {"measurement": "minimum effective dose (MED), AHL", "setting": "Sprague–Dawley rats; p.o.", "result": 3, "unit": "mg/kg"}]}]}
